Active and inactive are the calls of the source. No cut-off for these calls is given here.
What was measured:
[1] = test system: T-cell; experiment: Induction of cell differentiation in anti-CD3/CD28 stimulated naive T-cells assessed as number of Treg cells at 3 uM measured after 72 hrs by flow cytometry analysis (reference value: 24 %); assay type: functional
[2] = test system: Mus musculus; experiment: Antiinflammatory activity in DSS-induced ulcerative colitis mouse model assessed as protection against colon destruction at 20 to 40 mg/kg, po administered for 10 consecutive days by HE staining based histopathological analysis; assay type: functional, organism-based; details: dose 20-40 mg/kg, time 10.0 day
[3] = test system: T-cell; experiment: Induction of cell differentiation in anti-CD3/CD28 stimulated naive T-cells assessed as number of Treg cells at 30 uM measured after 72 hrs by flow cytometry analysis (reference value: 24 %); assay type: functional
[4] = test system: T-cell; experiment: Induction of cell differentiation in anti-CD3/CD28 stimulated naive T-cells assessed as upregulation of Foxp3 expression at 10 uM measured after 72 hrs by Q-PCR analysis; assay type: functional, cell-based
[5] = test system: T-cell; experiment: Induction of cell differentiation in anti-CD3/CD28 stimulated naive T-cells assessed as upregulation of IL-10 mRNA expression at 3 to 30 uM measured after 72 hrs by Q-PCR analysis; assay type: functional, cell-based; details: dose 3-30 µM
[6] = test system: Mus musculus; experiment: Induction of Treg cell differentiation in DSS- induced ulcerative colitis mouse model assessed as increase in Foxp3 mRNA level at 20 to 40 mg/kg, po administered for 10 consecutive days by Q-PCR analysis; assay type: functional, organism-based; details: dose 20-40 mg/kg, time 10.0 day
[7] = test system: Mus musculus; experiment: Induction of Treg cell differentiation in DSS- induced ulcerative colitis mouse model assessed as increase in IL-10 mRNA level at 20 to 40 mg/kg, po administered for 10 consecutive days by Q-PCR analysis; assay type: functional, organism-based; details: dose 20-40 mg/kg, time 10.0 day
[8] = test system: Mus musculus; experiment: Antiinflammatory activity in DSS-induced ulcerative colitis mouse model assessed as reduction in DAI score a 20 to 40 mg/kg, po administered for 10 consecutive days; assay type: functional, organism-based; details: dose 20-40 mg/kg, time 10.0 day
[9] = test system: T-cell; experiment: Induction of cell differentiation in anti-CD3/CD28 stimulated naive T-cells assessed as number of Treg cells at 10 uM measured after 72 hrs by flow cytometry analysis (reference value: 24 %); assay type: functional
[10] = test system: Mus musculus; experiment: Induction of Treg cell differentiation in DSS- induced ulcerative colitis mouse model assessed as number of Treg cells in colonic lamina proprias at 20 mg/kg, po administered for 10 consecutive days by flow cytometry analysis (Rvb= 7.97%); assay type: functional; details: time 10 day
[11] = test system: Mus musculus; experiment: Induction of Treg cell differentiation in DSS- induced ulcerative colitis mouse model assessed as number of Treg cells in mesenteric lymph nodes at 40 mg/kg, po administered for 10 consecutive days by flow cytometry analysis (Rvb= 7.52%); assay type: functional; details: time 10 day
[12] = test system: Mus musculus; experiment: Induction of Treg cell differentiation in DSS- induced ulcerative colitis mouse model assessed as number of Treg cells in colonic lamina proprias at 40 mg/kg, po administered for 10 consecutive days by flow cytometry analysis (Rvb= 7.97%); assay type: functional; details: time 10 day
[13] = test system: T-cell; experiment: Induction of cell differentiation in anti-CD3/CD28 stimulated naive T-cells assessed as upregulation of Foxp3 mRNA expression at 3 to 30 uM measured after 72 hrs by Q-PCR analysis; assay type: functional, cell-based; details: dose 3-30 µM
[14] = test system: Mus musculus; experiment: Induction of Treg cell differentiation in DSS- induced ulcerative colitis mouse model assessed as number of Treg cells in spleens at 20 mg/kg, po administered for 10 consecutive days by flow cytometry analysis (Rvb= 6.49%); assay type: functional; details: time 10 day
[15] = test system: T-cell; experiment: Induction of cell differentiation in anti-CD3/CD28 stimulated naive T-cells assessed as upregulation of CD4+ CD25+ cell frequency at 10 uM measured after 72 hrs by flow cytometry analysis; assay type: functional, cell-based
[16] = test system: Mus musculus; experiment: Antiinflammatory activity in DSS-induced ulcerative colitis mouse model assessed as rescue of colon length shortening at 20 to 40 mg/kg, po administered for 10 consecutive days; assay type: functional, organism-based; details: dose 20-40 mg/kg, time 10.0 day
[17] = test system: Mus musculus; experiment: Induction of Treg cell differentiation in DSS- induced ulcerative colitis mouse model assessed as number of Treg cells in mesenteric lymph nodes at 20 mg/kg, po administered for 10 consecutive days by flow cytometry analysis (Rvb= 7.52%); assay type: functional; details: time 10 day
[18] = test system: Mus musculus; experiment: Induction of Treg cell differentiation in DSS- induced ulcerative colitis mouse model assessed as number of Treg cells in spleens at 40 mg/kg, po administered for 10 consecutive days by flow cytometry analysis (Rvb= 6.49%); assay type: functional; details: time 10 day
[19] = test system: Mus musculus; experiment: Antiinflammatory activity in DSS-induced ulcerative colitis mouse model assessed as protection against inflammation of colons at 20 to 40 mg/kg, po administered for 10 consecutive days by HE staining based histopathological analysis; assay type: functional, organism-based; details: dose 20-40 mg/kg, time 10.0 day
[20] = test system: EL4; experiment: Cytotoxicity against mouse EL4 cells assessed as effect on cell viability at 1 to 10 uM measured after 72 hrs by MTT assay; assay type: cell-based; details: el4, 72 h, dose 1-10 µM
[21] = test system: Mus musculus; experiment: Antiinflammatory activity in DSS-induced ulcerative colitis mouse model assessed as reduction in MPO activity at 20 to 40 mg/kg, po administered for 10 consecutive days; assay type: functional, organism-based; details: dose 20-40 mg/kg, time 10.0 day

## COc1cc2c(cc1O)C[C@@H]1NCCc3cc(OC)c(O)c-2c31
[1]
  Activity: 24.4%
[2]
  Activity: Active
[3]
  Activity: 44.2%
[4]
  Activity: Active
[5]
  Activity: Active
[6]
  Activity: Active
[7]
  Activity: Active
[8]
  Activity: Active
[9]
  Activity: 31.8%
[10]
  Activity: 12.25%
[11]
  Activity: 14.89%
[12]
  Activity: 15.87%
[13]
  Activity: Active
[14]
  Activity: 6.58%
[15]
  Activity: Active
[16]
  Activity: Active
[17]
  Activity: 9.8%
[18]
  Activity: 7.41%
[19]
  Activity: Active
[20]
  Activity: Non-Toxic
[21]
  Activity: Active

— ChEMBL document CHEMBL4823244, “Synthesis of norisoboldine derivatives and bioactivity assay for inducing the generation of regulatory T cells” (Bioorg Med Chem Lett, 2021)
